Like-named read-outs stand apart in the source and are kept apart here.
Experiments:
[1] = iv; NDA 020449; cited from earlier work
[2] = test system: 9L GBM cell line tumor in the brain; assay: Syngeneic 9L GBM intra-brain tumor survival (Example 10); type: in vivo, Fischer rats
Method: Seventy-five (75) animals were designated for this study. The animals were divided into nine groups as described in Table 6. Group 1 served as untreated control. Groups 2 and 3 served as positive controls and were treated with temozolomide (SOC chemotherapy treatment in GBM patients) by gavage in low (33.5 mg/kg) and high doses (50 mg/kg), respectively. Group 4 (n=10) was treated with Formulation II vehicle at the defect site in the same amount as the Formulation II high amount group. Groups 5-8 (n=10/group) were treated at the excision site Formulation II at 5, 10, 25, or 50 mg/defect site. At study initiation, an incision was made and the calvarium bone of all animals was exposed and 5 mm diameter defect was drilled in the calvarium bone. The dura was cut and the brain was exposed. Each animal was injected with 9L cells (10^5 cells/2 μL/animal) at a depth of ˜1 mm in the brain using a stereotaxic instrument. Following injection of the cells, the incision was sutured. Animals were returned to their cages to recover. Treatment (temozolomide or Formulation II) was set to start five days post cell injection. For Formulation II/Formulation II vehicle treatment, the brain defects in Groups 4-8 were reopened and test articles were administered on top of the site of injection, inside the defect at Day 5. The defects were sealed with bone wax. Animals were returned to their cages to recover. Survival, clinical signs, body weight, and evaluation of cognitive behavior were followed during the study.

[3] = test system: HCT-8 colorectal carcinoma cells; conditions: cited from earlier work
KB-P-15 Epidermoid cells = conditions: cited from earlier work
CT-26 cell line = conditions: CT-26, resistant cell line; cited from earlier work
CRC: HCT-116 cells = conditions: HCT-116, non-resistant; cited from earlier work
NSCLC: A549 cells = conditions: A549, non-resistant; cited from earlier work
[4] = test system: KB-PTX/099 Epidermoid cells; conditions: cited from earlier work
[5] = test system: HCT-15 colorectal carcinoma cells; conditions: cited from earlier work
[6] = test system: DLD-1 colorectal carcinoma cells; conditions: cited from earlier work
[7] = test system: A549.EpoB40 non squamous cell lung carcinoma; conditions: cited from earlier work
epidermoid KB-3-1 cells = conditions: KB-3-1, non-resistant; cited from earlier work
KB-D-15 Epidermoid cells = conditions: cited from earlier work
KB-V-1 Epidermoid cells = conditions: cited from earlier work
[8] = Pharmacokinetic profile of locally administered formulations vs i.v docetaxel (Example 11); type: in vivo, Sprague-Dawley female Rats
Description: This study compared the pharmacokinetics profile of docetaxel sustained release composition according to several embodiments of the invention administered to rats. The systemic PK profile of docetaxel released from the local administered formulations was compared to the PK profile of docetaxel administered i.v.
Animals: 30 Sprague-Dawley female Rats weighing+/−200 gram
Experimental Design—three study groups (n=10) were included in this study. Animals were anesthetized and skin above the right hip was cut (1 cm long) and lifted, creating a SC pocket. By making this pocket, the underlying muscle was slightly injured, mimicking the situation of the resection of SC tumor graft in the rat model. Each animal received the treatment as detailed in Table 7. In Groups 1 and 2, Formulations VI and I respectively were administered in the SC pocket on top of the injured muscle. The skin was then sutured. In the i.v. treated group (Group 3), the administration of treatment was given once, immediately after wound closure. After administration, blood samples were collected in the designated time points. Each treatment group was divided to two subgroups (n=5/subgroup) and each subgroup was sampled at the different time points. Blood was collected at 0.5, 1, 2, 4, 8, 12, and 24 hours and at 2, 3, 4, 5, 6, 7, 14, 21, and 30 days post-administration. Clinical signs and animal weights were followed during the study. The concentration of the released docetaxel in the plasma samples was evaluated by a liquid chromatography tandem mass spectrometry (LC-MS/MS) method (lower limit of quantitation [LLOQ]=3 ng/mL). The results were used to determine the PK profile of docetaxel.

KB-8-5 Epidermoid cells = conditions: cited from earlier work
[9] = test system: CT-26 subcutaneous colon carcinoma tumors; conditions: for survival rate / tumor free animals: Day 39; for average tumor volume: after 39 days; for day animals started to gain weight: mouse, in vivo
Description: In the current experiment, the efficacy of local treatment with extended-release formulations according to some embodiments of the invention was compared to systemic treatment with Docetaxel. For that, subcutaneous colon carcinoma tumors were established in female BALB/c mice (7-8 weeks old, weighing ±16-20 gram at study initiation) and after reaching a desired volume (400-600 mm^3), they were resected and ˜90% of their volume was removed followed by administration of the test items. The recurrence rate of the tumors was followed and compared to an untreated control group.
Animals were injected SC with 0.5 million CT-26 cells above the right hip. When the tumor reached the desired volume (400 mm^3) after ˜7 days, animals were divided to five groups, mice were anesthetized, and the tumors were resected. Group 1 was administered with 200 mg of formulation VI containing 1.3% docetaxel (2.6 mg/mouse) to the tumor bed and Group 2 was administered with 200 mg of formulation I containing 0.88% docetaxel ([…]) to the tumor bed. Groups 3 and 4 were treated by repeated i.v injections of docetaxel solution. Group 3 was administered with 20 mg/kg i.v followed by five i.v injections of 10 mg/kg, once every 4 days. Group 4 was administered with 30 mg/kg i.v followed by five IV injections of 15 mg/kg, once every 4 days. Group 5 served as a saline-treated control with ˜100 μL saline administered locally into the tumor bed. The skin incision was then closed using a sterile suture. Post-surgery, the animals were returned to their cages for recovery and observation. Tumor size, clinical signs, and body weights were followed for 39 days.

[10] = test system: U87 human GBM cell line tumor xenograft; assay: Resected U87 GBM xenograft, different amounts of Formulation II (Example 9); conditions: 300 mg/kg intraperitoneal, four times, every 7 days
Method: This study was performed to assess the efficacy of the anti-tumor effect of different amounts of the sustained release compositions according to some exemplary embodiments of the invention on U87 human GBM cell line tumor xenograft in nude mice.
Mice were injected subcutaneously (SC) with 3 million U87 cells above the right hip. When the tumor reached the volume of about 400 mm^3 after about 9 days, animals were divided to six groups (n=10/group), the mice were anesthetized, and the tumors were resected. The tumor bed sizes were measured and documented. Groups 1, 2 and 3 were administered 20, 50, or 100 mg of formulation II; 0.87% docetaxel locally on the tumor bed, respectively. Group 4 was administered 100 mg of formulation II vehicle (excipients only without DTX) locally on the tumor bed. Group 5 served as a saline control in which ˜100 μL saline was administered locally into the tumor bed. Group 6 served as positive control and was treated with gemcitabine (300 mg/kg administered as an intraperitoneal injection, four times, every 7 days). The skin incision was then closed using a sterile suture. Post-surgery, the animals were returned to their cages for recovery and observation. Tumor size, clinical signs, and body weights were followed for 43 days.
After tumor resection, the area of the tumor bed was measured. […] The applications of Formulation II were calculated and normalized to amount per 1 cm^2 tumor bed area. The normalized application rates and docetaxel doses are detailed in Table 5.

LLC1 cell line tumors = assay: Antitumor and anti-metastatic effect on resected LLC1 tumors (Example 13); type: in vivo; conditions: 6 mg/kg IP twice a week
Method: The objective of this study was to assess the efficacy of the antitumor and anti-metastatic effect of different amounts of Formulation II on mouse syngeneic louis lung carcinoma (LLC1) cell line tumors in C57BL mice. The selected cell line (LLC1) is known to spontaneously form metastases in the lungs originating from a primary tumor.
Male C57BL mice, 7-8 weeks old, weighing 18-21 grams were designated for this study. LLC1 tumor cells were injected SC to the back of the mice. When the tumors reached a volume of about 400 mm^3 they were resected (at least 90% of the tumor volume was removed; average area of 0.7 cm^2). The animals were divided into 6 groups (n=10). Groups 1-4 were administered different amounts of Formulation II directly to the tumor bed. Untreated group (Group 5) served as negative control and systemically treated group (Group 6) served as positive control. Five (5) animals served as sham group, they were not injected with tumor cells but underwent the surgical procedure (Group 7). Following treatment, the surgical site was sewed and animals were returned to their cages for recovery. Animals that had tumors larger than 1500 mm^3 were humanly terminated. At termination the number of metastases in the lungs was counted in each animal.
The number of metastases was counted post termination/death. In some cases, the lungs condition didn't allow evaluation of metastases. were too decomposed and therefore the number of metastases in these lungs were not evaluated. The counting discriminated between small metastases (0.1-0.5 mm) and big metastases (>0.5 mm). In case of large number of metastases (>100), it was defined as too numerus to count (TNTC).

[11] = female, Sprague-Dawley, rat, intravenous, plasma docetaxel, single i.v 10 mg/kg
[12] = female, Sprague-Dawley, rat, iv, plasma docetaxel, single i.v 10 mg/kg

CC(=O)O[C@@]12CO[C@@H]1C[C@H](O)[C@@]1(C)C(=O)[C@H](O)C3=C(C)[C@@H](OC(=O)[C@H](O)[C@@H](NC(=O)OC(C)(C)C)c4ccccc4)C[C@@](O)([C@@H](OC(=O)c4ccccc4)[C@H]21)C3(C)C [Taxotere]
maximal tolerated dose (MTD) and non-lethal dose (NLD) reported [1]: 10 mg/kg

Cn1nnc2c(C(N)=O)ncn2c1=O [Temozolomide]
mean survival ([2]; 33.5 mg/kg PO daily for 5 days): 18.8 ± 2.7 days | mean survival ([2]; 50 mg/kg PO daily for 5 days): 21.8 ± 3.3 days | survival rate ([2]; day 23, 33.5 mg/kg, 5 treatment days): 0%

CC(=O)O[C@@]12CO[C@@H]1C[C@H](O)[C@@]1(C)C(=O)[C@H](O)C3=C(C)[C@@H](OC(=O)[C@H](O)[C@@H](NC(=O)OC(C)(C)C)c4ccccc4)C[C@@](O)([C@@H](OC(=O)c4ccccc4)[C@H]21)C3(C)C [docetaxel]
IC50 [3]: 3070 nM | IC50 (KB-P-15 Epidermoid cells): 17.6 nM | IC50 (CT-26 cell line): 260 nM | IC50 (CRC: HCT-116 cells): 5.4 nM | IC50 (NSCLC: A549 cells): 1.9 nM | IC50 [4]: 8.8 nM | IC50 [5]: 54.1 nM | IC50 [6]: 16.2 nM | IC50 [7]: 28.5 nM | IC50 (epidermoid KB-3-1 cells): 1.1 nM | IC50 (KB-D-15 Epidermoid cells): 68.2 nM | IC50 (KB-V-1 Epidermoid cells): 468 nM | Cmax of i.v relative to max exposure of Formulation VI ([8]; 881 vs. 80.4 ng/ml): more than 10 fold | AUC(0-t) [8, 11]: 2280 ng·h/mL | Cmax [8, 11]: 881 ng/mL | C0 [8, 12]: 881 ng/mL | Tmax [8, 12]: 0 h | half-life [8, 12]: 23.1 h | Tlast ([8]; plasma docetaxel, single i.v 10 mg/kg): 72 h | IC50 (KB-8-5 Epidermoid cells): 8.8 nM | survival rate ([9]; i.v 10 mg/kg every 4 days): 50% | survival rate ([9]; i.v 15 mg/kg every 4 days): 63% | tumor free animals ([9]; i.v 20 mg/kg then five injections of 10 mg/kg every 4 days): 2/8 | tumor free animals ([9]; i.v 30 mg/kg then five injections of 15 mg/kg every 4 days): 3/8 | average tumor volume ([9]; i.v 10 mg/kg every 4 days): 955 mm^3 | average tumor volume ([9]; i.v 15 mg/kg every 4 days): 485 mm^3 | overall tumor free survival ([9]; day 39 post surgery, five cycles of systemic treatment): 25% | overall tumor recurrence ([9]; end of study, extensive systemic treatment): 75% | animals terminated early due to tumor volume that exceeded 1500 mm^3 ([9]; i.v 10 mg/kg every 4 days): 4 | animals terminated early due to tumor volume that exceeded 1500 mm^3 ([9]; i.v 15 mg/kg every 4 days): 2 | day animals started to gain weight ([9]; 10 mg/kg): 20 days | day animals started to gain weight ([9]; 15 mg/kg): 23 days | delayed tumor recurrence after tumor resection (first tumor related mortality) ([9]; systemic treatment arm): 9 days

Nc1ccn([C@@H]2O[C@H](CO)[C@@H](O)C2(F)F)c(=O)n1 [gemcitabine]
animals found dead [10]: 4 | animals terminated due to tumor volume that exceeded 1500 mm^3 [10]: 4 | survival rate ([10]; Day 43): 20% | tumor free animals ([10]; Day 43): 2/10 | average tumor volume ([10]; after 43 days): 780 mm^3

CC(=O)O[C@H]1C(=O)[C@@]2(C)[C@H]([C@H](OC(=O)c3ccccc3)[C@]3(O)C[C@H](OC(=O)[C@H](O)[C@@H](NC(=O)c4ccccc4)c4ccccc4)C(C)=C1C3(C)C)[C@]1(OC(C)=O)CO[C@@H]1C[C@@H]2O [paclitaxel]
IC50 [3]: 3290 nM | IC50 (KB-P-15 Epidermoid cells): 117 nM | IC50 [4]: 74.1 nM | IC50 [5]: 435 nM | IC50 [6]: 32.8 nM | IC50 [7]: 128 nM | IC50 (KB-D-15 Epidermoid cells): 566 nM | IC50 (KB-V-1 Epidermoid cells): 3200 nM | IC50 (KB-8-5 Epidermoid cells): 70.2 nM

CC(=O)O[C@H]1C(=O)[C@@]2(C)[C@H]([C@H](OC(=O)c3ccccc3)[C@]3(O)C[C@H](OC(=O)[C@H](O)[C@@H](NC(=O)c4ccccc4)c4ccccc4)C(C)=C1C3(C)C)[C@]1(OC(C)=O)CO[C@@H]1C[C@@H]2O [taxel]
animals that had tumor (LLC1 cell line tumors): 4/10 | average lung weight (LLC1 cell line tumors): 226 ± 114 mg | average tumor volume (LLC1 cell line tumors): 490 mm^3 | average weight at termination lower than weight at t=0 (LLC1 cell line tumors): 4% | metastases free animals (lungs) (LLC1 cell line tumors): 5/10 | animals early terminated due to tumor volume (LLC1 cell line tumors; day 23): One | animals found dead (LLC1 cell line tumors; day 25): one

From patent publication US20240050396A1, “COMPOSITIONS AND METHODS FOR THE TREATMENT OF SOLID TUMORS” (POLYPID LTD., priority 2020, published 2024)
